Like-named read-outs stand apart in the source and are kept apart here.
Key:
[1] = system: 60 cancer cell lines (NCI 60 cancer cell line series); assay: NCI-DTP in vitro cancer screen, sulforhodamine B (SRB) growth inhibition, 48 hour exposure; assay type: cell-based, human; set-up: key to sensitivity class Ovarian OVCAR-8 CL6005 / sensitivity class Ovarian SK-OV-3 CL6011 / sensitivity class Prostate DU-145 CL11003 / sensitivity class NSCLC NCI-H522 CL1003 / sensitivity class Ovarian IGROV1 CL6010 / sensitivity class Ovarian OVCAR-4 CL6002 / sensitivity class Prostate PC-3(I) CL11001 / sensitivity class Renal A498 CL9013 / sensitivity class Renal SN12C CL9008: sensitivity class: 1 = Low, 2 = Medium, 3 = High
How it was run: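 Sixty NCI-DTP cancer lines plated at line-specific densities, dosed on day 1 in duplicate with 5 concentrations at ten-fold intervals. After 48 h exposure, cell mass read by SRB staining; GI50 (50% growth inhibition) taken from dose-response curves and expressed as -log GI50.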

[2] = system: 60 cancer cell lines (NCI 60 cancer cell line series); details: cited from earlier work

With `O=C1c2c(O)ccc(O)c2C(=O)c2c(NCCNCCO)ccc(NCCNCCO)c21` [Mitoxantrone] the “classification of cell line as Low(1), Medium(2) or High(3) sensitivity to compound” value (from here on “classification of cell line”) ([1]; Breast BT-549 (CL5013)) was 2, the “classification of cell line” value ([1]; Breast HS-578T CL5006) was 2 and the “classification of cell line” value ([1]; Breast MCF7(I) (CL5001)) was 3. For the same compound, the “classification of cell line” value ([1]; Breast MCF7/ADRr (CL5002)) was 1, the “classification of cell line” value ([1]; Breast MDA-MB-231 CL5005) was 1 and the “classification of cell line” value ([1]; Breast MDA-MB-435 (CL5011)) was 1. For the same compound, the “classification of cell line” value ([1]; Breast MDA-N CL5012) was 1, the “classification of cell line” value ([1]; Breast T-47D (CL5014)) was 2 and the “classification of cell line” value ([1]; CNS SF-268 CL12014) was 2. For the same compound, the “classification of cell line” value ([1]; CNS SF-295 CL12015) was 2, the “classification of cell line” value ([1]; CNS SF-539 CL12016) was 3 and the “classification of cell line” value ([1]; CNS SNB-19 (CL12002)) was 3. The “classification of cell line” value ([1]; CNS SNB-75(I) CL12005) was 3, the “classification of cell line” value ([1]; CNS U251(I) CL12009) was 3 and the “classification of cell line” value ([1]; Colon COLO-250 CL4010) was 2. For the same compound, the “classification of cell line” value ([1]; Colon HCC-2998 (CL4002)) was 1, the “classification of cell line” value ([1]; Colon HCT-15 CL4015) was 1 and the “classification of cell line” value ([1]; Colon HCT-116 (CL4003)) was 2. The “classification of cell line” value ([1]; Colon HT29(I) CL4001) was 1, the “classification of cell line” value ([1]; Colon KM12 (CL4017)) was 1 and the “classification of cell line” value ([1]; Colon SW-620 (CL4009)) was 2. The “classification of cell line” value ([1]; Leukemia CCRF-CEM(I) (CL7003)) was 3, the “classification of cell line” value ([1]; Leukemia HL-60(I) (CL7008)) was 3 and the “classification of cell line” value ([1]; Leukemia K562(I) CL7005) was 2. The “classification of cell line” value ([1]; Leukemia MOLT-4 (CL7006)) was 3, the “classification of cell line” value ([1]; Leukemia RPMI-8226(I) (CL7010)) was 2 and the “classification of cell line” value ([1]; Leukemia SR CL7019) was 3. For the same compound, the “classification of cell line” value ([1]; Melanoma LOX IMVI CL10001) was 2, the “classification of cell line” value ([1]; Melanoma M14 (CL10014)) was 2 and the “classification of cell line” value ([1]; Melanoma MALME-3M CL10002) was 2. For the same compound, the “classification of cell line” value ([1]; Melanoma SK-MEL-2 (CL10005)) was 1, the “classification of cell line” value ([1]; Melanoma SK-MEL-5 (CL10007)) was 2 and the “classification of cell line” value ([1]; Melanoma SK-MEL-28 (CL10008)) was 1. The “classification of cell line” value ([1]; Melanoma UACC-62 (CL10020)) was 2, the “classification of cell line” value ([1]; Melanoma UACC-257 (CL10021)) was 1 and the “classification of cell line” value ([1]; NSCLC A549/ATCC (CL1004)) was 3. The “classification of cell line” value ([1]; NSCLC EKVX (CL1008)) was 1, the “classification of cell line” value ([1]; NSCLC HOP-62 (CL1026)) was 3 and the “classification of cell line” value ([1]; NSCLC HOP-92 (CL1029)) was 3. For the same compound, the “classification of cell line” value ([1]; NSCLC NCI-H226 CL1013) was 3, the “sensitivity class NSCLC NCI-H23(I) CL1001” value ([1]; cell line NSCLC NCI-H23(I), CL1001) was 2 and the “sensitivity class NSCLC NCI-H332M CL1017” value ([1]; cell line NSCLC NCI-H332M, CL1017) was 1. For the same compound, the “sensitivity class NSCLC NCI-H460 CL1021” value ([1]; cell line NSCLC NCI-H460, CL1021) was 3, the “sensitivity class NSCLC NCI-H522 CL1003” value ([1]; cell line NSCLC NCI-H522, CL1003) was 2 and the “sensitivity class Ovarian IGROV1 CL6010” value ([1]; cell line Ovarian IGROV1, CL6010) was 2. The “sensitivity class Ovarian OVCAR-3 CL6001” value ([1]; cell line Ovarian OVCAR-3, CL6001) was 1, the “sensitivity class Ovarian OVCAR-4 CL6002” value ([1]; cell line Ovarian OVCAR-4, CL6002) was 1 and the “sensitivity class Ovarian OVCAR-5 CL6003” value ([1]; cell line Ovarian OVCAR-5, CL6003) was 1. The “sensitivity class Ovarian OVCAR-8 CL6005” value ([1]; cell line Ovarian OVCAR-8, CL6005) was 2, the “sensitivity class Ovarian SK-OV-3 CL6011” value ([1]; cell line Ovarian SK-OV-3, CL6011) was 2 and the “sensitivity class Prostate DU-145 CL11003” value ([1]; cell line Prostate DU-145, CL11003) was 2. For the same compound, the “sensitivity class Prostate PC-3(I) CL11001” value ([1]; cell line Prostate PC-3(I), CL11001) was 2, the “sensitivity class Renal 786-O CL9018” value ([1]; cell line Renal 786-O, CL9018) was 2 and the “sensitivity class Renal A498 CL9013” value ([1]; cell line Renal A498, CL9013) was 2. The “sensitivity class Renal ACHN CL9023” value ([1]; cell line Renal ACHN, CL9023) was 3, the “sensitivity class Renal CAKI-1 CL9015” value ([1]; cell line Renal CAKI-1, CL9015) was 3 and the “sensitivity class Renal RXF-393 CL9016” value ([1]; cell line Renal RXF-393, CL9016) was 2. The “sensitivity class Renal SN12C CL9008” value ([1]; cell line Renal SN12C, CL9008) was 3, the “sensitivity class Renal TK10 CL9024” value ([1]; cell line Renal TK10, CL9024) was 1 and the “sensitivity class Renal UO-31 CL9004” value ([1]; cell line Renal UO-31, CL9004) was 1. For the same compound, the “-Log (GI50)” value ([2]; Breast BT-549 (CL5013)) was 7.2, the “-Log (GI50)” value ([2]; Breast HS-578T CL5006) was 7.0 and the “-Log (GI50)” value ([2]; Breast MCF7(I) (CL5001)) was 8.4. For the same compound, the “-Log (GI50)” value ([2]; Breast MCF7/ADRr (CL5002)) was 5.4, the “-Log (GI50)” value ([2]; Breast MDA-MB-231 CL5005) was 6.7 and the “-Log (GI50)” value ([2]; Breast MDA-MB-435 (CL5011)) was 6.3. For the same compound, the “-Log (GI50)” value ([2]; Breast MDA-N CL5012) was 6.6, the “-Log (GI50)” value ([2]; Breast T-47D (CL5014)) was 7.2 and the “-Log (GI50)” value ([2]; CNS SF-268 CL12014) was 7.5. For the same compound, the “-Log (GI50)” value ([2]; CNS SF-295 CL12015) was 7.7, the “-Log (GI50)” value ([2]; CNS SF-539 CL12016) was 7.8 and the “-Log (GI50)” value ([2]; CNS SNB-19 (CL12002)) was 7.8. The “-Log (GI50)” value ([2]; CNS SNB-75(I) CL12005) was 7.9, the “-Log (GI50)” value ([2]; CNS U251(I) CL12009) was 8.0 and the “-Log (GI50)” value ([2]; Colon COLO-250 CL4010) was 7.0. For the same compound, the “-Log (GI50)” value ([2]; Colon HCC-2998 (CL4002)) was 6.6, the “-Log (GI50)” value ([2]; Colon HCT-15 CL4015) was 6.6 and the “-Log (GI50)” value ([2]; Colon HCT-116 (CL4003)) was 7.3. The “-Log (GI50)” value ([2]; Colon HT29(I) CL4001) was 6.6, the “-Log (GI50)” value ([2]; Colon KM12 (CL4017)) was 6.3 and the “-Log (GI50)” value ([2]; Colon SW-620 (CL4009)) was 7.3. For the same compound, the “-Log (GI50)” value ([2]; Leukemia CCRF-CEM(I) (CL7003)) was 8.2, the “-Log (GI50)” value ([2]; Leukemia HL-60(I) (CL7008)) was 8.0 and the “-Log (GI50)” value ([2]; Leukemia K562(I) CL7005) was 6.9. For the same compound, the “-Log (GI50)” value ([2]; Leukemia MOLT-4 (CL7006)) was 8.3, the “-Log (GI50)” value ([2]; Leukemia RPMI-8226(I) (CL7010)) was 6.7 and the “-Log (GI50)” value ([2]; Leukemia SR CL7019) was 8.1. For the same compound, the “-Log (GI50)” value ([2]; Melanoma LOX IMVI CL10001) was 7.7, the “-Log (GI50)” value ([2]; Melanoma M14 (CL10014)) was 6.9 and the “-Log (GI50)” value ([2]; Melanoma MALME-3M CL10002) was 6.9. The “-Log (GI50)” value ([2]; Melanoma SK-MEL-2 (CL10005)) was 6.4, the “-Log (GI50)” value ([2]; Melanoma SK-MEL-5 (CL10007)) was 7.3 and the “-Log (GI50)” value ([2]; Melanoma SK-MEL-28 (CL10008)) was 6.3. For the same compound, the “-Log (GI50)” value ([2]; Melanoma UACC-62 (CL10020)) was 7.4, the “-Log (GI50)” value ([2]; Melanoma UACC-257 (CL10021)) was 5.7 and the “-Log (GI50)” value ([2]; NCSLC NCI-H522 CL1003) was 7.3. The “-Log (GI50)” value ([2]; NSCLC A549/ATCC (CL1004)) was 7.9, the “-Log (GI50)” value ([2]; NSCLC EKVX (CL1008)) was 6.5 and the “-Log (GI50)” value ([2]; NSCLC HOP-62 (CL1026)) was 7.9. For the same compound, the “-Log (GI50)” value ([2]; NSCLC HOP-92 (CL1029)) was 7.8, the “-Log (GI50)” value ([2]; NSCLC NCI-H23(I) CL1001) was 7.2 and the “-Log (GI50)” value ([2]; NSCLC NCI-H226 CL1013) was 7.8. The “-Log (GI50)” value ([2]; NSCLC NCI-H332M CL1017) was 6.6, the “-Log (GI50)” value ([2]; NSCLC NCI-H460 CL1021) was 8.2 and the “-Log (GI50)” value ([2]; Ovarian IGROV1 CL6010) was 6.7. The “-Log (GI50)” value ([2]; Ovarian OVCAR-3 CL6001) was 6.5, the “-Log (GI50)” value ([2]; Ovarian OVCAR-4 CL6002) was 6.5 and the “-Log (GI50)” value ([2]; Ovarian OVCAR-5 CL6003) was 6.5. The “-Log (GI50)” value ([2]; Ovarian OVCAR-8 CL6005) was 7.4, the “-Log (GI50)” value ([2]; Ovarian SK-OV-3 CL6011) was 7.4 and the “-Log (GI50)” value ([2]; Prostate DU-145 CL11003) was 7.5. The “-Log (GI50)” value ([2]; Prostate PC-3(I) CL11001) was 6.9, the “-Log (GI50)” value ([2]; Renal 786-O CL9018) was 7.7 and the “-Log (GI50)” value ([2]; Renal A498 CL9013) was 7.2. For the same compound, the “-Log (GI50)” value ([2]; Renal ACHN CL9023) was 7.9, the “-Log (GI50)” value ([2]; Renal CAKI-1 CL9015) was 8.0 and the “-Log (GI50)” value ([2]; Renal RXF-393 CL9016) was 7.2. For the same compound, the “-Log (GI50)” value ([2]; Renal SN12C CL9008) was 8.1, the “-Log (GI50)” value ([2]; Renal TK10 CL9024) was 6.4 and the “-Log (GI50)” value ([2]; Renal UO-31 CL9004) was 6.5.
